Bridge positions count the residues as written; N and C are the ends. Square brackets hold non-standard residues; d marks the D form. Peptide text beside a SMILES is read from it. R8 = C=CCCCCCC[C@@](C)(N)C(=O)O; Cba = N[C@@H](CC1CCC1)C(=O)O; S5 = C=CCCC[C@](C)(N)C(=O)O; Nle = CCCC[C@H](N)C(=O)O; Ac3c = NC1(C(=O)O)CC1
Columns and labels:
SJSA-1 cells = assay: Cell lysis by peptidomimetic macrocycles (LDH release); format: cell-based; details: SJSA-1, 1 h
Protocol: SJSA-1 cells were plated out one day in advance in clear flat-bottom plates (Costar, catalog number 353072) at 7500 cells/well with 100 ul/well of growth media, leaving row H columns 10-12 empty for media alone. On the day of the assay, media was exchanged with RPMI 1% FBS media, 90 uL of media per well.
10 mM stock solutions of the peptidomimetic macrocycles were prepared in 100% DMSO. Peptidomimetic macrocycles were then diluted serially in 100% DMSO, and then further diluted 20-fold in sterile water to prepare working stock solutions in 5% DMSO/water of each peptidomimetic macrocycle at concentrations ranging from 500 μM to 62.5 μM.
10 μL of each compound was added to the 90 uL of SJSA-1 cells to yield final concentrations of 50 μM to 6.25 μM in 0.5% DMSO-containing media. The negative control (non-lytic) sample was 0.5% DMSO alone and positive control (lytic) samples include 10 μM Melittin and 1% Triton X-100.
Cell plates were incubated for 1 hour at 37° C. After the 1 hour incubation, the morphology of the cells is examined by microscope and then the plates were centrifuged at 1200 rpm for 5 minutes at room temperature. 40 μL of supernatant for each peptidomimetic macrocycle and control sample is transferred to clear assay plates. LDH release is measured using the LDH cytotoxicity assay kit from Caymen, catalog #1000882.

Caspase 3 = Caspase 3 detection assay in SJSA1 cells; format: cell-based; details: SJSA1, 48 h, Caspase 3 activation over DMSO-treated cells

| SMILES | 6.25 μM % Lysed cells (1 h LDH) (SJSA-1 cells) [%] | 25 μM % Lysed cells (1 h LDH) (SJSA-1 cells) [%] | 50 μM % Lysed cells (1 h LDH) (SJSA-1 cells) [%] | caspase 0.3 μM (Caspase 3) | caspase 3 μM (Caspase 3) | caspase 10 μM (Caspase 3) | caspase 30 μM (Caspase 3) |
| --- | --- | --- | --- | --- | --- | --- | --- |
| CC[C@H](C)[C@H](NC(=O)[C@H](C)NC(=O)[C@H](C)NC(=O)[C@]1(C)CCCC=CCCCCCC[C@@](C)(NC(=O)[C@H](Cc2ccccc2)NC(=O)[C@@H](NC(=O)[C@H](CC(C)C)NC(C)=O)[C@@H](C)O)C(=O)N[C@@H](C)C(=O)N[C@@H](Cc2ccc(O)cc2)C(=O)N[C@@H](Cc2c[nH]c3ccccc23)C(=O)N[C@@H](C)C(=O)N[C@@H](CCC(N)=O)C(=O)N[C@@H](CC(C)C)C(=O)N1)C(=O)N[C@H](CC(C)C)C(N)=O (single isomer, unassigned) [compound 82] | 0 | 0 | 1 |  |  |  |  |
| CC[C@H](C)[C@H](NC(=O)[C@H](C)NC(=O)[C@H](C)NC(=O)[C@]1(C)CCCC=CCCCCCC[C@@](C)(NC(=O)[C@H](Cc2ccccc2)NC(C)=O)C(=O)N[C@@H](C)C(=O)N[C@@H](Cc2ccc(O)cc2)C(=O)N[C@@H](Cc2c[nH]c3ccccc23)C(=O)N[C@@H](CCC(=O)O)C(=O)NC2(CC2)C(=O)N[C@@H](CC(C)C)C(=O)N1)C(N)=O [compound 19] (Ac-F[R8]AYWE[Ac3c]L[S5]AAI-NH2; staple 2-9) | 2 | 3 | 21 |  |  |  |  |
| CC[C@H](C)[C@H](NC(=O)[C@H](C)NC(=O)[C@H](C)NC(=O)[C@]1(C)CCCC=CCCCCCC[C@@](C)(NC(=O)[C@H](Cc2ccccc2)NC(=O)[C@@H](NC(=O)[C@H](CC(C)C)NC(C)=O)[C@@H](C)O)C(=O)N[C@@H](CCC(=O)O)C(=O)N[C@@H](Cc2ccc(C(=O)O)cc2)C(=O)N[C@@H](Cc2c[nH]c3cc(Cl)ccc23)C(=O)N[C@@H](C)C(=O)N[C@@H](CCC(N)=O)C(=O)N[C@@H](CC2CCC2)C(=O)N1)C(=O)N[C@H](C)C(N)=O (single isomer, unassigned) [compound 335] | 0 | 0 | 1 |  |  |  |  |
| CC(=O)N[C@@H](CCC(=O)O)C(=O)N[C@H](C(=O)N[C@@H](Cc1ccccc1)C(=O)N[C@]1(C)CCCCCCC=CCCC[C@@](C)(C(=O)N[C@@H](CO)C(=O)N[C@@H](CC(C)C)C(=O)N[C@@H](C)C(N)=O)NC(=O)[C@H](CC(C)C)NC(=O)[C@H](CCC(N)=O)NC(=O)[C@H](C)NC(=O)[C@H](Cc2c[nH]c3ccccc23)NC(=O)[C@H](Cc2ccc(O)cc2)NC(=O)[C@H](C(C)C)NC1=O)[C@@H](C)O [compound 127] (Ac-ETF[R8]VYWAQL[S5]SLA-NH2; staple 4-11) |  |  |  | 1 | 1 | 4 | 13 |
| CCCC[C@H](NC(=O)[C@H](C)NC(=O)[C@H](CCC(N)=O)NC(=O)[C@H](Cc1c[nH]cn1)NC(=O)[C@]1(C)CCCC=CCCCCCC[C@@](C)(NC(=O)[C@H](Cc2ccccc2)NC(C)=O)C(=O)N[C@@H](C)C(=O)N[C@@H](Cc2ccc(O)cc2)C(=O)N[C@@H](Cc2c[nH]c3ccccc23)C(=O)N[C@@H](CO)C(=O)N[C@@H](C)C(=O)N[C@@H](CC(C)C)C(=O)N1)C(N)=O [compound 39] (Ac-F[R8]AYWSAL[S5]HQA[Nle]-NH2; staple 2-9) | 0 | 0 | 3 |  |  |  |  |
| CC(=O)N[C@@H](CC(C)C)C(=O)N[C@H](C(=O)N[C@@H](Cc1ccccc1)C(=O)N[C@]1(C)CCCCCCC=CCCC[C@@](C)(C(=O)N[C@@H](C)C(=O)N[C@@H](C)C(=O)NC(C)(C)C(=O)N[C@@H](C)C(N)=O)NC(=O)[C@H](CC(C)C)NC(=O)[C@H](CCC(N)=O)NC(=O)[C@H](C)NC(=O)[C@H](Cc2c[nH]c3ccccc23)NC(=O)[C@H](Cc2ccc(O)cc2)NC(=O)[C@H](C)NC1=O)[C@@H](C)O (single isomer, unassigned) [compound 232] | 6 | 5 | 5 |  |  |  |  |
| CCCCCC(=O)N[C@@H](CC(C)C)C(=O)N[C@H](C(=O)N[C@@H](Cc1ccccc1)C(=O)N[C@]1(C)CCCCCCC=CCCC[C@@](C)(C(=O)N[C@@H](CO)C(=O)N[C@@H](C)C(=O)N[C@@H](C)C(N)=O)NC(=O)[C@H](CCC(C)C)NC(=O)[C@H](CCC(N)=O)NC(=O)[C@H](C)NC(=O)[C@H](Cc2c[nH]c3ccccc23)NC(=O)[C@H](Cc2ccc(O)cc2)NC(=O)[C@H](CCC(=O)O)NC1=O)[C@@H](C)O [compound 280] | 5 | 6 | 18 |  |  |  |  |
| CCCC[C@H](NC(=O)[C@H](C)NC(=O)[C@H](C)NC(=O)[C@]1(C)CCCC=CCCCCCC[C@@](C)(NC(=O)[C@H](Cc2ccccc2)NC(=O)[C@@H](NC(=O)[C@H](CC(C)C)NC(C)=O)[C@@H](C)O)C(=O)N[C@@H](C)C(=O)N[C@@H](Cc2ccc(O)cc2)C(=O)N[C@@H](Cc2c[nH]c3ccccc23)C(=O)N[C@@H](Cc2cc(=O)oc3cc(OC)c(OC)cc23)C(=O)N[C@@H](CCC(N)=O)C(=O)N[C@@H](CC(C)C)C(=O)N1)C(=O)N[C@@H](C)C(N)=O [compound 415] | 4 | 2 | 2 |  |  |  |  |
| CC(=O)N[C@@H](CC(C)C)C(=O)N[C@H](C(=O)N[C@@H](Cc1ccccc1)C(=O)N[C@]1(C)CCCCCCC=CCCC[C@@](C)(C(=O)N[C@@H](CO)C(=O)N[C@@H](C)C(=O)N[C@@H](C)C(N)=O)NC(=O)[C@H](CC(C)C)NC(=O)[C@H](CCC(N)=O)NC(=O)[C@H](C)NC(=O)[C@H](Cc2c[nH]c3ccccc23)NC(=O)[C@H](Cc2ccc(C(=O)O)cc2)NC(=O)[C@H](C)NC1=O)[C@@H](C)O (single isomer, unassigned) [compound 169] | 2 | 3 | 7 |  |  |  |  |
| CC(=O)N[C@@H](Cc1ccccc1)C(=O)N[C@]1(C)CCCCCCC=CCCC[C@@](C)(C(=O)N[C@@H](C)C(=O)N[C@@H](C)C(=O)N[C@@H](CC(C)C)C(N)=O)NC(=O)[C@H](CC(C)C)NC(=O)C2(CC2)NC(=O)[C@H](CCC(=O)O)NC(=O)[C@H](Cc2c[nH]c3ccccc23)NC(=O)[C@H](Cc2ccc(O)cc2)NC(=O)[C@H](C)NC1=O [compound 15] (Ac-F[R8]AYWE[Ac3c]L[S5]AAL-NH2; staple 2-9) | 1 | 2 | 5 |  |  |  |  |
| CC(C)CC[C@@H]1NC(=O)[C@H](CCC(N)=O)NC(=O)[C@H](C)NC(=O)[C@H](Cc2c[nH]c3ccccc23)NC(=O)[C@H](Cc2ccc(O)cc2)NC(=O)[C@H](CCC(=O)O)NC(=O)[C@](C)(NC(=O)[C@H](Cc2ccccc2)NC(=O)[C@@H](NC(=O)[C@H](CC(C)C)NC(=O)C(C)(C)C)[C@@H](C)O)CCCCCCC=CCCC[C@@](C)(C(=O)N[C@@H](CO)C(=O)N[C@@H](C)C(=O)N[C@@H](C)C(N)=O)NC1=O [compound 284] | 5 | 5 | 6 |  |  |  |  |
| CC(=O)N[C@@H](CC(C)C)C(=O)N[C@H](C(=O)N[C@@H](Cc1ccccc1)C(=O)N[C@]1(C)CCCCCCC=CCCC[C@@](C)(C(=O)N[C@@H](C)C(=O)N[C@@H](C)C(=O)N[C@@H](Cc2c[nH]c3ccccc23)C(=O)N[C@H](C)C(N)=O)NC(=O)[C@H](CC(C)C)NC(=O)[C@H](CCC(N)=O)NC(=O)[C@H](C)NC(=O)[C@H](Cc2c[nH]c3ccccc23)NC(=O)[C@H](Cc2ccc(O)cc2)NC(=O)[C@H](C)NC1=O)[C@@H](C)O [compound 211] (Ac-LTF[R8]AYWAQL[S5]AAW[dA]-NH2; staple 4-11) | 5 | 3 | 1 |  |  |  |  |
| CC(=O)N[C@@H](CC(C)C)C(=O)N[C@H](C(=O)N[C@@H](Cc1ccccc1)C(=O)N[C@]1(C)CCCCCCC=CCCC[C@@](C)(C(=O)N[C@@H](CO)C(=O)N[C@@H](C)C(=O)N[C@@H](Cc2ccccc2)C(=O)N[C@@H](C)C(N)=O)NC(=O)[C@H](CC2CCC2)NC(=O)[C@H](CCC(N)=O)NC(=O)[C@H](C)NC(=O)[C@H](Cc2c[nH]c3ccccc23)NC(=O)[C@H](Cc2ccc(O)cc2)NC(=O)[C@H](CCC(=O)O)NC1=O)[C@@H](C)O [compound 242] (Ac-LTF[R8]EYWAQ[Cba][S5]SAFA-NH2; staple 4-11) |  |  |  | 1 | 4 | 5 | 18 |
| CCCC[C@H](NC(=O)[C@H](C)NC(=O)[C@H](C)NC(=O)[C@]1(C)CCCC=CCCCCCC[C@@](C)(NC(=O)[C@H](Cc2ccccc2)NC(=O)[C@@H](NC(=O)[C@H](CC(C)C)NC(C)=O)[C@@H](C)O)C(=O)N[C@@H](CCC(=O)O)C(=O)N[C@@H](Cc2ccc(O)cc2)C(=O)N[C@@H](Cc2c[nH]c3ccccc23)C(=O)N[C@@H](C)C(=O)N[C@@H](CCC(N)=O)C(=O)N[C@@H](CC2CCC2)C(=O)N1)C(=O)N[C@@H](C)C(N)=O [compound 238] (Ac-LTF[R8]EYWAQ[Cba][S5]AA[Nle]A-NH2; staple 4-11) |  |  |  | 1 | 2 | 4 | 21 |

Reference: patent US20200369728A1, “PEPTIDOMIMETIC MACROCYCLES AND USES THEREOF” (Aileron Therapeutics, Inc., priority 2015, published 2020)
